Results: patent US20180153830A1, “SELECTIVE INHIBITORS OF UNDIFFERENTIATED CELLS” (Yissum Research Development Company of the Hebrew …, priority 2012, published 2018)

Assays:
[1] = test system: protein synthesis in BJ fibroblasts; experiment: 35S-Met metabolic labeling of protein synthesis, fibroblasts; type: cell-based, human; settings: 12 hours, 20 μM
Protocol: H9 embryonic stem cells were seeded in Matrigel™ pre-coated 6-well tissue culture plates at a density of 2×10^5 cells/well, and cultured using mTeSR1 defined medium. BJ fibroblasts were seeded in 6-well tissue culture plate at the same density, and cultured with DMEM supplemented with 10% FBS, penicillin (50 U/ml) and streptomycin (50 μg/ml). Cells were treated for 12 hours with either 20 μM PluriSIn #1 (isonicotinic acid N′-phenylhydrazide) or with 0.2% DMSO. Cells were then washed with PBS, and replenished with methionine-deficient medium for 1 hour. Metabolic labeling of the cells was then performed for 1 hour with 10 μCi of […] methionine in 1 ml/well, in the presence of 20 μM PluriSIn #1 or 0.2% DMSO. Cells were washed with PBS containing 10 mM methionine, and were then lysed in 0.4 ml of 30% ice-cold trichloroacetic acid (TCA) containing 10 mM methionine for 15 minutes. […] Total protein concentration was determined using a Bradford Protein Assay (Sigma-Aldrich), and the radioactivity measurements were normalized accordingly. […]
The similarity between PSIs and PluriSIn #1 and #6 is consistent with the fact that UPR can lead to translational attenuation. In order to confirm this link, the effect of PluriSIn #1 treatment on protein synthesis was determined. […]

[2] = test system: caspase-3 in embryonic stem cells; experiment: Immunoblotting for caspase-3; type: cell-based, human; settings: 20 μM
Protocol: For immunoblotting, 10% polyacrylamide gel was used for protein separation and detection. The gel was transferred to a nitrocellulose membrane and antibody hybridization and chemiluminescence were performed according to standard procedures. The primary antibodies in this analysis were rabbit anti-phosphorylated-eIF2a (1:250, Cell Signaling Technology), rabbit anti caspase-3 (1:1,000, Cell Signaling Technology), mouse anti β-catenin (1:10,000, BD Biosciences) and mouse anti-α-tubulin (1:50,000, Sigma-Aldrich). Horseradish peroxidase-conjugated anti-rabbit and anti-mouse secondary antibodies were obtained from Jackson Immunoresearch Laboratories.
The finding of gene expression associated with apoptosis is consistent with previous reports that pluripotent cells are prone to apoptosis [Qin et al., Journal of Biological Chemistry 282:5842-5852 (2007); Momcilovic et al., PloS One 5:e13410 (2010)]. However, pluripotent cells have also been reported to be susceptible to other types of cell death, such as oncosis [Tan et al., Stem Cells 27:1792-1801 (2009)] and autophagy [Alexander et al., PNAS 108:15828-15833 (2011)]. An Annexin V-FITC detection assay and immunoblotting for caspase-3 (a hallmark executioner of apoptosis) were therefore used in order to confirm that the massive hPSC death induced by PluriSIn #1 is indeed apoptosis.

SCD1 = molecular target: T1, SCD1 (Homo sapiens, UniProt O00767); experiment: SCD1 activity measurement ([1-14C] stearic acid pulse-chase labeling); type: cell-based; design: PluriSIn #1 decreased SCD1 activity by approximately 65% decrease in ES cells; endogenous in cells; host or cells: human embryonic stem cells (H9, printed '1-19'); settings: 20 μM, 12 hours
T1 sequence (O00767 1-359): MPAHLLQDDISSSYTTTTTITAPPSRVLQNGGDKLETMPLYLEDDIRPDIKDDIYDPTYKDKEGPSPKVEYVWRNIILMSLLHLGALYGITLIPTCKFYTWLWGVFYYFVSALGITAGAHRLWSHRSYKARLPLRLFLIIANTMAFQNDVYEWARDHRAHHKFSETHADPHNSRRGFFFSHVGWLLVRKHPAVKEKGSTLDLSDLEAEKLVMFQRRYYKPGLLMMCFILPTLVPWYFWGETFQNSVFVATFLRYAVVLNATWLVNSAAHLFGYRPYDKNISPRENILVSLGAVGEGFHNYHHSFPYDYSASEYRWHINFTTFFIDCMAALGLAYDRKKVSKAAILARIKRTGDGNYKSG
Protocol: Cells were plated in 6-well plates at a density of 50,000 to 100,000 cells per well. 24 hours later, 20 μM of PluriSIn #1 (isonicotinic acid N′-phenylhydrazide) or 0.2% DMSO (control) were added to the cells. After 12 hours of incubation at 37° C., under 5% CO2, the old medium was removed, cells were washed with PBS, and new medium containing 2.3 μM of 0.75 μCi of [1-^14C] stearic acid was added. The cells were then incubated for up to 4 hours at 37° C., under 5% CO2.
After the incubation period, the medium was discarded and the cells were washed 3 times with 2 ml of PBS. 2 ml of an n-hexane:isopropanol mixture (3:2 v:v) were added, and the cells were then incubated for 30 minutes at a temperature of 37° C., under 5% CO2. […] The free fatty acids were detected by ultraviolet illumination after spraying the TLC with a 2′,7′-dichlorofluorescein solution. The spots corresponding to stearic and oleic acid were scraped and the radioactivity counted in a Packard Tri-Carb® 1600TR scintillating counter. SCD1 desaturase activity was calculated from the percent conversion of substrate to product and the conversion to picomoles per minute per 10^6 cells. […]
In order to directly examine whether PluriSin #1 inhibits SCD activity, and whether this inhibition is restricted to pluripotent cells, SCD1 activity was measured by a pulse-chase labeling assay, as described in the Materials and Methods section. […]

O=C(NNc1ccccc1)c1ccncc1 [PluriSIn #1, isonicotinic acid N′-phenylhydrazide]
effect on protein synthesis, differentiated cells (fibroblasts) [1]: no effect | activation of caspase-3 [2]: enhanced activation of caspase-3 | decrease in SCD1 activity in ES cells (SCD1): approximately 65%
